Ki data for 1 compound are collected here from publication PMC3284191 (Journal of Agricultural and Food Chemistry, 2012).

This experiment has as its target β-galactosidase LacZ from L. bulgaricus (nontagged) (Lactobacillus delbrueckii, UniProt Q1G9Z4). Kind of experiment: inhibition of oNPG hydrolysis, nonlinear regression. It counts as biochemical. As to conditions: read-out: nontagged LacZ; substrate oNPG; 50 mM sodium phosphate, pH 6.5, 30 °C; competitive.

β-galactosidase LacZ from L. bulgaricus (nontagged), sequence (Q1G9Z4 2-1008): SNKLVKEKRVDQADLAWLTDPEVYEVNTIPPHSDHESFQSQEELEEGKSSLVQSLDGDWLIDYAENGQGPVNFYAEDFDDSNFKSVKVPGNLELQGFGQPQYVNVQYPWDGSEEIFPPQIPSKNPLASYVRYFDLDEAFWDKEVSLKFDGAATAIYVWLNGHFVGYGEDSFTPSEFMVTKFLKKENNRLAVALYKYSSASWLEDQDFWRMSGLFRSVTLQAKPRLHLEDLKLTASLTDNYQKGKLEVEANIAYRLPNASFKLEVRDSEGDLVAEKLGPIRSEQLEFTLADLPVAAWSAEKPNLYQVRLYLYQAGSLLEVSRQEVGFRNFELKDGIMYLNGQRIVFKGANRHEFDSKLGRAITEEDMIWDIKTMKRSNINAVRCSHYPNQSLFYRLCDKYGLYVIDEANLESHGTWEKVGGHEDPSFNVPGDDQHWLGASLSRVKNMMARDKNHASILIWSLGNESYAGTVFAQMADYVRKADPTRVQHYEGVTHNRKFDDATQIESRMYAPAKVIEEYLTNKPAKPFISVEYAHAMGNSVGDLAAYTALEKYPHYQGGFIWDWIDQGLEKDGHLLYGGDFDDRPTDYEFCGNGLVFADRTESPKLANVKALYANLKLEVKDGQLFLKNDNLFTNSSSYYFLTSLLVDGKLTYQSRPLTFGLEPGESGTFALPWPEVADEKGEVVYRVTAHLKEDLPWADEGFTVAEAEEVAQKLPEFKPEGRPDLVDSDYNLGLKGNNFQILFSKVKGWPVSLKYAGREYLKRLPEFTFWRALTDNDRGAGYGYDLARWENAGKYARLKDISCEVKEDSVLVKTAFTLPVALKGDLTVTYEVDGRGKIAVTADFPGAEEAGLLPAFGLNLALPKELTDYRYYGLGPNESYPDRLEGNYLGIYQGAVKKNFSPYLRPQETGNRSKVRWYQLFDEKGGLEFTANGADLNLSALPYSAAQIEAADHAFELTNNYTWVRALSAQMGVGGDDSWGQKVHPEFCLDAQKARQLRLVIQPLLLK

For `OC[C@H]1OC(O)[C@H](O)[C@@H](O)[C@H]1O` (stereo partly drawn) [D-galactose], the Ki was determined as 9.52 ± 1.54 mM.
